Experimental data: ChEMBL document CHEMBL4400531, “Structure-Based Design of N-(5-Phenylthiazol-2-yl)acrylamides as Novel and Potent Glutathione S-Transferase Omega 1 Inhibitors” (J Med Chem, 2019)

Columns and labels:
[1] = Stability of the compound in 20% acetonitrile/PBS buffer at room temperature by LC-MS/MS analysis; type: physicochemical
[2] = Half life in mouse liver microsomes at 1 uM in presence of NADPH by LC-MS/MS analysis; type: ADME, Microsome
[3] = Half life in human liver microsomes at 1 uM in presence of NADPH by LC-MS/MS analysis; type: ADME, Microsome
HT-29 = test: cells; details: Homo sapiens, HT-29, 72 h
HCT-116 = test: cells; details: Homo sapiens, HCT-116, 72 h
Description: Antiproliferative activity against human HCT116 cells after 72 hrs by MTT assay

[4] = target: T1, Glutathione S-transferase omega-1 (Homo sapiens, UniProt P78417); test: Inhibition of CMFDA binding to human N-terminal 6x-His-tagged GSTO1-1 preincubated for 30 mins followed by CMFDA addition and measured after 30 mins by in-gel fluorescence binding assay
T1 sequence (P78417 whole entry): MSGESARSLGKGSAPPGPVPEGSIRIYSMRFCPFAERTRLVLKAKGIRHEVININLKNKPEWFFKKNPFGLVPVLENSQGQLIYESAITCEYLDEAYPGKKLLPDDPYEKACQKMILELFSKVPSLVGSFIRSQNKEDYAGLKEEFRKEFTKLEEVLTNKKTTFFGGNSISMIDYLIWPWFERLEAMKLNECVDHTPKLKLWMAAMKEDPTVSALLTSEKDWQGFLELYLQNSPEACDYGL

[5] = Metabolic stability in human liver microsomes at 1 uM in presence of NADPH incubated for 10 mins by LC-MS/MS analysis; type: ADME, Microsome; details: read-out: Stability
[6] = Metabolic stability in human liver microsomes at 1 uM in presence of NADPH incubated for 5 mins by LC-MS/MS analysis; type: ADME, Microsome; details: read-out: Stability
[7] = Metabolic stability in mouse liver microsomes at 1 uM in presence of NADPH incubated for 15 mins by LC-MS/MS analysis; type: ADME, Microsome; details: read-out: Stability
[8] = Metabolic stability in mouse liver microsomes at 1 uM in presence of NADPH incubated for 10 mins by LC-MS/MS analysis; type: ADME, Microsome; details: read-out: Stability
[9] = Metabolic stability in human liver microsomes at 1 uM in presence of NADPH incubated for 0 mins by LC-MS/MS analysis; type: ADME, Microsome; details: read-out: Stability
[10] = Metabolic stability in human liver microsomes at 1 uM in presence of NADPH incubated for 60 mins by LC-MS/MS analysis; type: ADME, Microsome; details: read-out: Stability
[11] = Metabolic stability in mouse liver microsomes at 1 uM in presence of NADPH incubated for 0 mins by LC-MS/MS analysis; type: ADME, Microsome; details: read-out: Stability
[12] = Metabolic stability in mouse liver microsomes at 1 uM in presence of NADPH incubated for 60 mins by LC-MS/MS analysis; type: ADME, Microsome; details: read-out: Stability
[13] = Metabolic stability in human liver microsomes at 1 uM in presence of NADPH incubated for 15 mins by LC-MS/MS analysis; type: ADME, Microsome; details: read-out: Stability
[14] = Metabolic stability in mouse liver microsomes at 1 uM in presence of NADPH incubated for 5 mins by LC-MS/MS analysis; type: ADME, Microsome; details: read-out: Stability
[15] = Metabolic stability in mouse liver microsomes at 1 uM in presence of NADPH incubated for 45 mins by LC-MS/MS analysis; type: ADME, Microsome; details: read-out: Stability
[16] = Metabolic stability in human liver microsomes at 1 uM in presence of NADPH incubated for 30 mins by LC-MS/MS analysis; type: ADME, Microsome; details: read-out: Stability
[17] = Metabolic stability in human liver microsomes at 1 uM in presence of NADPH incubated for 45 mins by LC-MS/MS analysis; type: ADME, Microsome; details: read-out: Stability
[18] = Metabolic stability in mouse liver microsomes at 1 uM in presence of NADPH incubated for 30 mins by LC-MS/MS analysis; type: ADME, Microsome; details: read-out: Stability

SMILES | IC50 (HT-29) | IC50 (HCT-116) | IC50 [4] | also measured
C=CC(=O)Nc1nc(-c2ccc(Cl)cc2)cs1 |  |  |  | Stability [1]: Stable; t1/2 [2]: 3.21 min; t1/2 [3]: 9.52 min
C=CC(=O)N1CCC(Cc2ccccc2)CC1 | > 30 µM | > 30 µM | > 10 µM | 
C=CC(=O)Nc1nc(-c2ccccc2OC)cs1 | > 30 µM | > 30 µM | > 10 µM | 
C=CC(=O)N1CCC(c2ccccc2)CC1 | > 30 µM | > 30 µM | > 10 µM | 
C=CC(=O)N(Cc1cc(C)no1)c1nc(-c2ccccc2O)cs1 |  |  |  | remaining at 10 min, 1 µM [5]: 7.41%; remaining at 5 min, 1 µM [6]: 14.8%; remaining at […], 1 µM [7]: 12%; Stability [1]: Stable; remaining at 10 min, 1 µM [8]: 12%; remaining at 0 h, 1 µM [9]: 100%; remaining at 1 h, 1 µM [10]: 3.7%; remaining at 0 h, 1 µM [11]: 100%; t1/2 [2]: 1.81 min; remaining at 1 h, 1 µM [12]: 4%; remaining at […], 1 µM [13]: 3.7%; remaining at 5 min, 1 µM [14]: 16%; remaining at 0.75 h, 1 µM [15]: 4%; remaining at 0.5 h, 1 µM [16]: 3.7%; remaining at 0.75 h, 1 µM [17]: 3.7%; t1/2 [3]: 1.89 min; remaining at 0.5 h, 1 µM [18]: 8%

Now from value to compound, other results behind:

IC50 (HT-29) | IC50 (HCT-116) | IC50 [4] | SMILES | also measured
> 30 µM | > 30 µM | > 10 µM | C=CC(=O)Nc1cnn(Cc2ccccc2)c1 | 
> 30 µM | > 30 µM | > 10 µM | C=CC(=O)Nc1cnn(-c2ccccc2)c1 | 
> 30 µM | > 30 µM | > 10 µM | COC(=O)/C=C/CNc1ccc(Cl)c(S(=O)(=O)N(C)C)c1 | 
6.1 to 13.5 µM | 7.1 to 12.5 µM | > 10 µM | C=CC(=O)Nc1nc(-c2ccc(O)cc2)cs1 | 
